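Values below derive from 48-hour exposures of cells grown in 96-well plates, with endpoints linearly interpolated between the two concentrations bracketing the appropriate inhibition level. GI50 marks 50% less growth.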 The source made the active and inactive calls. Cut-off read from the data, not from the text of the source: active = GI50 up to about 1.1 µM and inactive = higher.
Assays:
Experiment in all cases: NCI-60 cell line screen, 48 h
[1] = test system: A549
[2] = test system: DU-145
[3] = test system: EKVX
[4] = test system: HT-29
[5] = test system: LOX IMVI
[6] = test system: Malme-3M
[7] = test system: NCI-H522
[8] = test system: NCI/ADR-RES
[9] = test system: OVCAR-4
[10] = test system: RPMI-8226
[11] = test system: SF-268
[12] = test system: SK-OV-3
[13] = test system: SNB-19
[14] = test system: SR
[15] = test system: SW-620
[16] = test system: T47D
[17] = test system: U-251
[18] = test system: MOLT-4
[19] = test system: NCI-H226
[20] = test system: A498

Measured: GI50

O=c1sc(Nc2ccc3ccccc3c2Cl)nc2ccccc12
inactive: [1] > 100 µM | [2] > 100 µM | [3] > 100 µM | [4] > 100 µM | [5] > 100 µM | [6] > 100 µM | [7] > 100 µM | [8] > 100 µM | [9] > 100 µM | [10] > 100 µM | [11] > 100 µM | [12] > 100 µM | [13] > 100 µM | [14] 7.08 µM | [15] > 100 µM | [16] > 100 µM | [17] > 100 µM

O=C(Nc1ccn(C2CC(O)C(COC(c3ccccc3)(c3ccccc3)c3ccccc3)O2)c(=O)n1)c1ccccc1 (stereo unspecified)
inactive: [1] 4.54 µM | [2] 5.61 µM | [3] 4.27 µM | [4] 1.71 µM | [18] 2.16 µM | [6] 2.61 µM | [19] 11 µM | [7] 3.6 µM | [8] 2.46 µM | [9] 3.24 µM | [10] 2.53 µM | [11] 5.06 µM | [12] 11.5 µM | [13] 3.77 µM | [14] 2.44 µM | [15] 2.58 µM | [16] 4.46 µM | [17] 3.5 µM

CCOC(=O)C(NC(=O)c1cccc(Cl)c1)(Nc1ccc(S(=O)(=O)Nc2cc(C)on2)cc1)C(F)(F)F (stereo unspecified)
inactive: [20] > 100 µM | [1] > 100 µM | [2] > 100 µM | [3] > 100 µM | [4] > 100 µM | [5] > 100 µM | [18] > 100 µM | [6] > 100 µM | [19] > 100 µM | [7] > 100 µM | [8] > 100 µM | [9] > 100 µM | [10] > 100 µM | [11] > 100 µM | [12] > 100 µM | [13] > 100 µM | [15] > 100 µM | [16] > 100 µM | [17] > 100 µM

Cc1c(N2C(=O)/C(=C/c3ccc(Cl)cc3)N=C2c2ccccc2)c(=O)n(-c2ccccc2)n1C
inactive: [1] 28.8 µM | [2] 38.2 µM | [3] 19.7 µM | [4] 26.6 µM | [5] 16.7 µM | [18] 21.2 µM | [6] 31.5 µM | [19] 30.7 µM | [7] 19.8 µM | [8] 44.5 µM | [9] 33.9 µM | [10] 17.8 µM | [11] 30.8 µM | [12] 36.5 µM | [14] 30.5 µM | [15] 31.9 µM | [16] 29.6 µM | [17] 28.2 µM

COc1ccc(-c2nc(-c3cnccn3)n(Cc3ccccc3)n2)cc1
inactive: [1] > 100 µM | [2] > 100 µM | [4] > 100 µM | [5] > 100 µM | [18] > 100 µM | [7] > 100 µM | [8] > 100 µM | [9] > 100 µM | [10] > 100 µM | [11] > 100 µM | [12] > 100 µM | [13] > 100 µM | [14] > 100 µM | [15] > 100 µM | [16] > 100 µM | [17] > 100 µM

CCOc1cc(C=O)ccc1O [ETHYL VANILLIN]
inactive: [1] > 100 µM | [2] > 100 µM | [3] > 100 µM | [4] > 100 µM | [5] > 100 µM | [18] > 100 µM | [6] > 100 µM | [19] > 100 µM | [7] > 100 µM | [8] > 100 µM | [9] > 100 µM | [10] > 100 µM | [11] > 100 µM | [13] > 100 µM | [14] 76 µM | [15] > 100 µM | [16] > 100 µM | [17] > 100 µM
